Format in all cases: in vivo
Assay [1] relates to velvetleaf (Abutilon theophrasti). The experiment in a line: pre-emergence herbicidal activity, velvetleaf. The note with it: 1 kg/Ha, about fourteen days, read-out: pre-emergence herbicidal activity (% control) ABUTH. Here is the method:
(§1) This example sets forth the methods of herbicidal testing conducted on the specific compounds set forth below. Specifically, the compounds referenced below were tested for pre- and post-emergence herbicidal activity using a variety of crops and weeds. The test plants include, but are not limited to, soybean (Glycine max -- var. Winchester), field corn (Zea mays var. Pioneer 3732), wheat (Triticum aestivum var. Lew), morningglory (Ipomea lacunosa or Ipomea hederacea), velvetleaf (Abutilon theophrasti), green foxtail (Setaria viridis), Johnsongrass (Sorghum halepense), blackgrass (Aloepecurus myosuroides), common chickweed (Stellaria media), and common cocklebur (Xanthium strumarium L.).
(§2) In the post-emergence test, seeds of the plant species named above were planted in flats containing the appropriate soil mixture where they were maintained to allow the seeds to germinate. When the plants in these flats reached the proper stage of growth, flats for the pre-emergence tests were planted in a like manner. The flats containing the post-emergence and pre-emergence test plant species were then sprayed with an appropriately concentrated water/acetone solution of test compound. Once treated the flats were maintained, along with untreated controls, for about fourteen days. All treated plants were then examined for phytotoxicity, which was expressed as percent control where 0 is no effect and 100 is complete control. Effective rates of application for the compounds of the present invention range from 0.001 to 3 kg/ha, more likely from […] to 1 Kg/ha.
(§3) Herbicidal activity data at selected application rates are in Tables 4 and 5. The test compounds are identified by numbers correspond to those in Table 1.
(§4) Rate of application of test compound is 1 kg/Ha
(§5) SOY is soybean, WHT is wheat, CRN is corn, ABUTH is velvetleaf, IPOSS is
(§6) morningglory, STEME is chickweed, XANPE is cocklebur, ALOMY is blackgrass, […]

Assay [2] deals with green foxtail (Setaria viridis). The experiment in a line: pre-emergence herbicidal activity, green foxtail. The note with it: 1 kg/Ha, about fourteen days, read-out: pre-emergence herbicidal activity (% control) SETVI. Here is the method:
as §1, §2, §3, §4, §5, §6

Assay [3] has as its system Johnsongrass (Sorghum halepense). The experiment in a line: post-emergence herbicidal activity, johnsongrass. As to conditions: 1 Kg/Ha, about fourteen days, read-out: post-emergence herbicidal activity (% control) SORHA. Here is the method:
as §1, §2, §3, §5
(§7) morningglory, STEME is chickweed, XANPE is cocklebur, ALOMY is blackgrass,
(§8) Rate of application of test compound is 1 Kg/Ha. The definitions as shown under Table 4 apply to Table 5.

The subject of assay [4] is field corn (Zea mays var. Pioneer 3732). The experiment in a line: post-emergence herbicidal activity, corn. As to conditions: 1 Kg/Ha, about fourteen days, read-out: post-emergence herbicidal activity (% control) CRN. The procedure: as §1, §2, §3, §5, §7, §8
The subject of assay [5] is common cocklebur (Xanthium strumarium L.). The experiment in a line: post-emergence herbicidal activity, cocklebur. The note with it: 1 Kg/Ha, about fourteen days, read-out: post-emergence herbicidal activity (% control) XANPE. Here is the method:
as §1, §2, §3, §5, §7, §8

The subject of assay [6] is velvetleaf (Abutilon theophrasti). The experiment in a line: post-emergence herbicidal activity, velvetleaf. The note with it: 1 Kg/Ha, about fourteen days, read-out: post-emergence herbicidal activity (% control) ABUTH. Here is the method:
as §1, §2, §3, §5, §7, §8

Assay [7] relates to common chickweed (Stellaria media). The experiment in a line: pre-emergence herbicidal activity, chickweed. As to conditions: 1 kg/Ha, about fourteen days, read-out: pre-emergence herbicidal activity (% control) STEME. Here is the method:
as §1, §2, §3, §4, §5, §6

The test system of assay [8] is field corn (Zea mays var. Pioneer 3732). The experiment in a line: pre-emergence herbicidal activity, corn. As to conditions: 1 kg/Ha, about fourteen days, read-out: pre-emergence herbicidal activity (% control) CRN. Here is the method:
as §1, §2, §3, §4, §5, §6

Assay [9] deals with blackgrass (Aloepecurus myosuroides). The experiment in a line: pre-emergence herbicidal activity, blackgrass. The note with it: Alopecurus myosuroides, 1 kg/Ha, about fourteen days, read-out: pre-emergence herbicidal activity (% control) ALOMY. The procedure:
as §1, §2, §3, §4, §5, §6

Assay [10] relates to morningglory (Ipomea lacunosa or Ipomea hederacea). The experiment in a line: pre-emergence herbicidal activity, morningglory. The note with it: Ipomoea, 1 kg/Ha, about fourteen days, read-out: pre-emergence herbicidal activity (% control) IPOSS. The procedure:
as §1, §2, §3, §4, §5, §6

Assay [11] deals with wheat (Triticum aestivum var. Lew). The experiment in a line: post-emergence herbicidal activity, wheat. The note with it: 1 Kg/Ha, about fourteen days, read-out: post-emergence herbicidal activity (% control) WHT. The procedure: as §1, §2, §3, §5, §7, §8
For assay [12] the test system is unchanged. The experiment in a line: pre-emergence herbicidal activity, wheat. The note with it: 1 kg/Ha, about fourteen days, read-out: pre-emergence herbicidal activity (% control) WHT. Here is the method:
as §1, §2, §3, §4, §5, §6

Assay [13] relates to soybean (Glycine max -- var. Winchester). The experiment in a line: pre-emergence herbicidal activity, soybean. The note with it: 1 kg/Ha, about fourteen days, read-out: pre-emergence herbicidal activity (% control) SOY. Here is the method: as §1, §2, §3, §4, §5, §6
In assay [14] the test system is common cocklebur (Xanthium strumarium L.). The experiment in a line: pre-emergence herbicidal activity, cocklebur. The note with it: 1 kg/Ha, about fourteen days, read-out: pre-emergence herbicidal activity (% control) XANPE. The procedure:
as §1, §2, §3, §4, §5, §6

Assay [15] concerns soybean (Glycine max -- var. Winchester). The experiment in a line: post-emergence herbicidal activity, soybean. The note with it: 1 Kg/Ha, about fourteen days, read-out: post-emergence herbicidal activity (% control) SOY. The procedure:
as §1, §2, §3, §5, §7, §8

The test system of assay [16] is green foxtail (Setaria viridis). The experiment in a line: post-emergence herbicidal activity, green foxtail. The note with it: 1 Kg/Ha, about fourteen days, read-out: post-emergence herbicidal activity (% control) SETVI. Here is the method: as §1, §2, §3, §5, §7, §8
The subject of assay [17] is morningglory (Ipomea lacunosa or Ipomea hederacea). The experiment in a line: post-emergence herbicidal activity, morningglory. The note with it: Ipomoea, 1 Kg/Ha, about fourteen days, read-out: post-emergence herbicidal activity (% control) IPOSS. Here is the method: as §1, §2, §3, §5, §7, §8
Assay [18] deals with common chickweed (Stellaria media). The experiment in a line: post-emergence herbicidal activity, chickweed. The note with it: 1 Kg/Ha, about fourteen days, read-out: post-emergence herbicidal activity (% control) STEME. The procedure: as §1, §2, §3, §5, §7, §8

7 compounds from patent publication US6277847A, “Herbicidal isoindolinonyl-and 3,4-dihydroisoquinolonyl-substituted heterocycles” (FMC Corporation, priority 2000, dated 2001) can be followed below.

In the case of `Cn1c(C(F)(F)F)cc(=O)n(-c2ccc(Cl)c3c2CN(CC(F)(F)F)C3=O)c1=O` [Compound 28], the activity at 1000 g/ha in assay [1], in assay [2], in [3], in assay [4], in [5] and in assay [6] was 100% each time. Further, the activity at 1000 g/ha in [7], in assay [8], in [9], in assay [10], in assay [11] and in assay [12] was 100% in each case. Moreover, the activity at 1000 g/ha in assay [13], in assay [14], in assay [15], in [16], in [17] and in assay [18] was 100% throughout.

As for `COC(=O)CCN1Cc2c(-n3c(=O)cc(C(F)(F)F)n(C)c3=O)ccc(Cl)c2C1=O` [Compound 26], the activity at 1000 g/ha in [1] was 100%; in assay [2] it was 80%; in [3] it was 80%; in assay [4], 95%; in assay [5], 100%; in [6], 100%. The activity at 1000 g/ha came out at 100% in assay [7]; 80% in assay [8]; 80% in [9]; 80% in [10]; 70% in assay [11]; 50% in [12]. For the same compound, the activity at 1000 g/ha came out at 100% in assay [13]; 100% in [14]; 100% in [15]; 100% in assay [16]; 80% in assay [17]; 100% in [18].

Regarding `Cn1c(C(F)(F)F)cc(=O)n(-c2ccc(Cl)c3c2CN(CC2CC2)C3=O)c1=O` [Compound 29], the activity at 1000 g/ha in [1], in [2], in assay [3], in [4], in assay [5] and in assay [6] was 100% in each case. The activity at 1000 g/ha in [7], in [8], in assay [9], in assay [10], in assay [11] and in assay [12] was 100% throughout. Besides, the activity at 1000 g/ha in assay [13], in assay [14], in [15], in assay [16], in assay [17] and in [18] was 100% in each case.

Turning to `Cn1c(C(F)(F)F)cc(=O)n(-c2ccc(Cl)c3c2CN(CC#N)C3=O)c1=O` [Compound 30], the activity at 1000 g/ha is 100% in assay [1]; 100% in assay [2]; 100% in assay [3]; 95% in assay [4]; 100% in [5]; 100% in [6]. The activity at 1000 g/ha in assay [7] was found to be 100%; in assay [8], 100%; in assay [9], 100%; in assay [10], 100%; in assay [11], 60%; in assay [12], 100%. The activity at 1000 g/ha in assay [13], in [14], in assay [15], in assay [16], in assay [17] and in assay [18] was 100% throughout.

In the case of `COc1ccc(CN2Cc3c(-n4c(=O)cc(C(F)(F)F)n(C)c4=O)ccc(Cl)c3C2=O)cc1` [Compound 25], the activity at 1000 g/ha turned out to be 100% in [1]; 100% in assay [2]; 75% in assay [3]; 90% in assay [4]; 60% in assay [5]; 100% in assay [6]. For the same compound, the activity at 1000 g/ha in assay [7] came out at 100%; in assay [8] it was 95%; in assay [9], 75%; in [10], 70%; in [11], 40%; in [12] it was 60%. Besides, the activity at 1000 g/ha in assay [13] is 50%; in [14], 40%; in assay [15], 80%; in assay [16] it was 100%; in [17], 90%; in [18] it was 80%.

As for `COCN1Cc2c(-n3c(=O)cc(C(F)(F)F)n(C)c3=O)ccc(Cl)c2C1=O` [Compound 31], the activity at 1000 g/ha in assay [1], in [2], in [3], in assay [4], in assay [5] and in assay [6] was 100% throughout. The activity at 1000 g/ha in assay [7], in [8], in assay [9], in assay [10], in assay [11] and in [12] was 100% throughout. For the same compound, the activity at 1000 g/ha in [13], in assay [14], in [15], in assay [16], in assay [17] and in [18] was 100% in each case.

Regarding `CC(C)N1Cc2c(-n3c(=O)cc(C(F)(F)F)n(N)c3=O)ccc(Cl)c2C1=O` [Compound 70], the activity at 1000 g/ha in [1], in assay [2], in assay [3], in assay [4], in assay [5] and in [6] was 100% throughout. The activity at 1000 g/ha in assay [7], in [8], in assay [9], in assay [10], in assay [11] and in assay [12] was 100% each time. The activity at 1000 g/ha in assay [13], in assay [14], in [15], in [16], in assay [17] and in [18] was 100% in each case.
